The values that follow come from patent US6482799B1, “Self-preserving multipurpose ophthalmic solutions incorporating a polypeptide antimicrobial” (The Regents of the University of California, priority 1999, dated 2002).

One series deals with Escherichia coli ML35. Description: Dose response and kinetics of antimicrobial activity in 10 mM sodium phosphate buffer. Format: cell-based. As to the method:
(§1) The time course and dose-dependence of the antimicrobial activity of an antimicrobial peptide can be determined by incubating a microorganism with the antimicrobial peptide and determining the viability after various times of incubation or after treatment with various concentrations of the antimicrobial peptide.
(§2) Exemplary assays using indolicidin and indolicidin analogs were performed in 10 mM sodium phosphate buffer, pH 7.4, at 37° C., as described by Selsted et al. (1985) Infect. Immun. 45:150-154, which is incorporated herein by reference.
The dose response of a gram negative bacterial strain, Escherichia coli ML35, and a gram positive bacterial strain, Staphylococcus aureus 502A, to indolicidin was determined by incubating 2×10^6 colony forming units (CFU) of log phase bacteria with 0-25 μg/mL of indolicidin for two hours. Following incubation, the cultures were serially diluted and plated on nutrient agar. Viability of both gram negative and gram positive bacteria was reduced by at least four orders of magnitude in incubations containing 10 μg/mL of indolicidin. E. coli was more susceptible than S. aureus, as >95% of the input cells were killed after 2 hr incubation with 2.5 μg/mL indolicidin. […]
The kinetics of indolicidin antimicrobial activity was evaluated by incubating 2×10^6 E. coli with […] of indolicidin for 1 to 40 min. […]

Series [1] has as its system Staphylococcus aureus 502A. Kind of series: Dose response of antimicrobial activity in 10 mM sodium phosphate buffer. The settings on record: 10 μg/mL indolicidin, 2 hours, 10 mM sodium phosphate buffer pH 7.4, 37° C., 2×10^6 CFU. Format: cell-based. As to the method:
as §1, §2
The dose response of a gram negative bacterial strain, Escherichia coli ML35, and a gram positive bacterial strain, Staphylococcus aureus 502A, to indolicidin was determined by incubating 2×10^6 colony forming units (CFU) of log phase bacteria with 0-25 μg/mL of indolicidin for two hours. Following incubation, the cultures were serially diluted and plated on nutrient agar. Viability of both gram negative and gram positive bacteria was reduced by at least four orders of magnitude in incubations containing 10 μg/mL of indolicidin. E. coli was more susceptible than S. aureus, as >95% of the input cells were killed after 2 hr incubation with 2.5 μg/mL indolicidin. The indolicidin diluent, 0.01% acetic acid, had no effect on either bacterial strain.

Series [2] is described as follows: Toxicity study, intravaginal administration. As to the method:
(§3) The objective of this study was to determine if the treatment regimen proposed for the efficacy study of the defensin formulations caused target organ toxicity. This study is not intended to support application for research or marketing permits for products regulated by governmental agencies. The purpose of this study is to provide range-finding data is therefore, not within the scope of Good Laboratory Practice Guidelines.
(§4) Mice were treated by intravaginal administration twice daily at ˜12 hour intervals administered on Days 1 through 4. Mice were treated intraperitoneally three times on Day 1 at ˜4 hour intervals, and twice daily at ˜12 hour intervals administered on days 2 through 4.
(§5) Dosing volumes were 0.1 mL/mouse (intravaginal), 0.1 mL/mouse (intraperitoneal), and 20 μL/rabbit. The study lasted 5 days, with day 1 the first day of dose administration.
(§6) The dose formulations were supplied in pyrogen-free saline.

Series [3] is described as follows: Toxicity study, intraperitoneal administration. The method, then: as §3, §4, §5, §6
Series [4] concerns Pseudomonas aeruginosa (ATCC 9027). Kind of series: MIC / log kill assay, FDA 510(k) stand-alone procedure. It counts as cell-based. The method, then: (§7) The supernatant was discarded and the wash repeated.
(§8) The tube was inverted to dissolve the polypeptide. […] Solutions were used immediately or stored at −20° C.
(§9) The purpose of this experiment was to determine whether additives such as surfactants (pluronic) and chelating agents (EDTA) would effect L-IND activity. The concentrations selected for each organism tested ( S. aureus and P. aeruginosa) were based on the L-IND MIC for that organism. A lower concentration was also selected to determine whether the additives enhanced the antimicrobial activity of L-IND. Concentrations of L-IND ranged from 3.12 to 50 μg/ml. The concentration of sodium phosphate (SP) buffer was also examined and ranged from 1 to 10 mM.
(§10) A full factorial experimental design was used with 5 factors at 2 levels: 1) Exposure time (1 hr, 4hr); 2) SP buffer concentration, pH 7.4 (1 mM, 10 mM); 3) Surfactant concentration (0.25 wt %, 0.5 wt %); 4) EDTA concentration (0.1 wt %, 0.2 wt %); and 5) L-IND concentration (MIC and lower).
(§11) As described in the MIC procedure (Example 10), cultures were exposed to solutions containing various combinations of the above components for 1 or 4 hr at room temperature. Appropriate controls were conducted to evaluate the effects of individual components. Each replicate (assay done in triplicate) was then diluted 10-fold in NaCl and plated onto Mueller-Hinton agar. Colonies were then counted and log kill, effects of each additive, SP buffer concentration, and length of exposure on L-IND activity were examined. […]

Series [5] concerns Staphylococcus aureus (ATCC 6538). The description is as above. Format: cell-based. Conditions: for log kill: 12.5 μg/ml. As to the method: as §7, §8, §9, §10, §11

For `CC[C@H](C)[C@H](N)C(=O)N[C@@H](CC(C)C)C(=O)N1CCC[C@H]1C(=O)N[C@@H](Cc1c[nH]c2ccccc12)C(=O)N[C@@H](CCCCN)C(=O)N[C@@H](Cc1c[nH]c2ccccc12)C(=O)N1CCC[C@H]1C(=O)N[C@@H](Cc1c[nH]c2ccccc12)C(=O)N[C@@H](Cc1c[nH]c2ccccc12)C(=O)N1CCC[C@H]1C(=O)N[C@@H](Cc1c[nH]c2ccccc12)C(=O)N[C@@H](CCCNC(=N)N)C(=O)N[C@@H](CCCNC(=N)N)C(N)=O` [L-indolicidin, H2N-ILPWKWPWWPWRR-CONH2], the Viability reduction result in the series with Escherichia coli ML35 (10 μg/mL indolicidin, 2 hours, 10 mM sodium phosphate buffer pH 7.4, 37° C., 2×10^6 CFU) is reported as “at least four”; in series [1] it was “at least four”. The culture viability result in the series on Escherichia coli ML35 (25 μ/mL indolicidin, after 20 min) is on record as “essentially was sterilized”. In series [2] (0.1 mL/mouse at 10, 100 or 1000 μg/mL, BPN-A-amide at 30, 300 or 300 μ/mL), the “Tissues from the reproductive tract (histology)” value is listed as “within normal limits”. In addition, the “deaths or clinical signs of toxicity” value in series [2] (10, 100 or 1000 μg/mL, BPN-A-amide 30, 300 or 3000 μg/mL) is reported as “No deaths or biologically significant clinical signs of toxicity”; in series [3] (L-indolicidin 10, 100 or 1000 μg/mL, D-indolicidin 10 or 1000 μ/mL, All-Phe-indolicidin 10 μg/mL, BPN-A-amide 30, 300 or 3000 μg/mL), “no deaths or biologically significant clinical signs of toxicity”. The gross alterations result in series [3] (0.1 mL/mouse at 10, 100 or 1000 μg/mL, BPN-A-amide at 30, 300 or 3000 μg/mL) was “no gross alternations”. Also, the “effect of pluronic on activity” value is recorded as “No effect” in series [4] (32 μ/ml, 0.25 wt % pluronic, either SP buffer concentration) and “no effect in activity” in series [5] (lower SP concentrations (1, 2.5 mM)). The inhibition in kill is approximately 3 log in series [4] (pluronic in 1 mM SP buffer, 32 and 16 μg/ml, 4 hr); “approximately 4 log” in series [5] (0.5 wt % pluronic, SP at 5 mM); more than 3 log in series [5] (32 μ/ml, pluronic and 10 mM SP buffer). For the same compound, the log kill is recorded as 6 log in series [5] (1 mM SP buffer, pluronic and EDTA at either concentration); 6 log in series [5] (10 mM SP, without pluronic). Also, the “effect of EDTA on activity” value in series [5] (10 mM SP, EDTA 0.1 or 0.2 wt %) is reported as “no effect”.
